In patent US4005194A, “Treatment of prostatic hyperplasia” (Abbott Laboratories, priority 1975, dated 1977):

Assays:
Male rats [1] = details: rat, in vivo
Experimental: Male rats, 22 days of age, were divided into 3 groups of five animals each. The 3 groups were treated exactly as described in Example 3, but the experiment was continued for 153 days. After 115 days, these animals were bred to untreated, cycling females (each male was caged with 2 cycling females in pro-estrus for 3 consecutive days, on 3-5 separate occasions).

Sprague Dawley male rat = details: in vivo
Experimental: Ten Sprague Dawley male rat 22 days of age and weighing 45-50 grams, were randomly divided into two groups. One group received the treatment described below. After 57 days of treatment, the animals from the non-treatment control group and those from the treatment group were sacrificed. The various organs were removed, trimmed of excess tissue and weighed. Body weights were taken weekly. Group I received no treatment; Group II received 10 μg of Compound N twice each day. The results are shown in Table I with each entry showing the mean value of the respective group.

Male rats [2] = details: rat, in vivo; remark: listed apart in the source
Experimental: In an experiment similar to that of Example 5 with Groups I and III being treated as shown, but Group II being treated like Group III except with only 1 μg of Compound N, the test was continued for 51 days, starting with 22-day old male rats, 5 animals per group. The animals were sacrificed on day 52. […] Another three groups of 5 male rats were treated in the identical fashion, but the treatment was extended from the age of 22 days to day 138 (116 days).

- Breeding index (percentage of successful impregnations vs. opportunities to breed) (Male rats [1]): 23%
- Course of resulting pregnancies (Male rats [1]): progressed normal
- Number of pups (Male rats [1]): 10.4
- Weight of pups on day 1 (Male rats [1]): 6.9 g
- Weight of pups on day 4 (Male rats [1]): 11.7 g
- Weight of pups on day 11 (Male rats [1]): 23.5 g
- Weight of pups on day 21 (Male rats [1]): 44.3 g
- Effect on normal weight gain and growth (Sprague Dawley male rat): essentially no effect
SMILES: CCNC(=O)[C@@H]1CCCN1C(=O)[C@H](CCCNC(=N)N)NC(=O)[C@H](CC(C)C)NC(=O)[C@@H](CC(C)C)NC(=O)[C@H](Cc1ccc(O)cc1)NC(=O)[C@H](CO)NC(=O)[C@H](Cc1c[nH]c2ccccc12)NC(=O)[C@H](Cc1c[nH]cn1)NC(=O)[C@@H]1CCC(=O)N1 [Compound N]
- Outward signs or organic changes over the control group (Male rats [2]): None of the treated animals in this experiment showed any outward signs or organic changes
